From PMC8691714 (Cancer Research Communications, 2021)

Experiments:
[1] = In vivo pharmacokinetic study in mice, oral ibrutinib (plasma, LC-MS/MS); conditions: for bioavailability / AUC(0-t) / Cmax: plasma, po; for AUC(0-t): Ibrutinib AUC(0-last); for Cmax: Ibrutinib Cmax; for increase in ibrutinib AUC: male FVB wild-type mice; for systemic levels of ibrutinib: ibrutinib 10 mg/kg orally
Procedure: (§1) Experiments were performed with male and female mice from inbred wild-type strains (FVB, C57BL/6, DBA) or with age- and sex-matched genetically engineered mice with a deficiency of the Cyp3a locus [(8 genes; FVB.129P2-Cyp3a13^tm1Ahs Del (5Cyp3a57-Cyp3a59)1Ahs); ref. [16]; CYP3A^−/−], a deficiency of the intestinal transporter OATP2B1 (ref. [17]; OATP2B1 ^−/−), or the hepatic transporter OATP1B2 (ref. [18]; OATP1B2 ^−/−). […] The studies were approved by the University Laboratory Animal Resources Animal Care and Use Committee at The Ohio State University (Columbus, OH). […] For in vivo studies, drugs were prepared in standard vehicles ([19, 20]). Details regarding the preparation of drugs are provided in the Supplementary Methods.
(§2) Pharmacokinetic studies were performed as described previously ([21]). Further details are provided in the Supplementary Methods.
(§3) The lower limit of quantification was 5 ng/mL, using 5-μL sample volumes. Details regarding the analytic method are provided in the Supplementary Methods.
(§4) Ketoconazole was prepared for oral administration as a 10-mg/mL suspension in PEG400, and cobicistat as a 6-mg/mL suspension in corn oil.
(§5) Pharmacokinetic studies were performed as previously described.
The analytical equipment consisted of a Vanquish UHPLC system, a TSQ Quantum Ultra triple quadrupole mass spectrometer from Thermo Fisher Scientific, and Thermo Trace Finder General Quan system software (version 3.3). An Accucore Vanquish C18 column (100 × 2.1 mm, dp = 1.5 μm; Thermo Fisher Scientific) was protected by a corresponding XBridgeBEH C18, 5-μm guard column. The injection volume of sample was 5.0 μL. The temperature of the autosampler rack was 4 °C, and the temperature of the column was 40 °C. Mobile phase A consisted of water with 0.1% (v/v) formic acid and mobile phase B consisted of acetonitrile: methanol (1:3) with 0.1% (v/v) formic acid. The total run time was 5 min. The mobile phase was delivered at a flow rate of 0.4 mL/min, and the optimized gradient contained time-varying amounts of mobile phase B, as follows: 0-0.5 min, 10% B; 0.5-1.5 min, 95% B; 1.5-2.9 min, 95% B; 2.9-3.0 min, 10% B; and 3.0-5.0 min, 10% B. The mass spectrometric assay settings included a positive voltage applied to the ESI capillary of 3500 V, a capillary temperature of 342 °C, and a vaporizer temperature of 358 °C. Argon was used a collision gas at a pressure of 1.5 mTorr. […] For sample extraction by protein precipitation, 5 µL of plasma, 5 µL of microsomal suspension, or 10 µL of homogenized tissue were added to a tube containing 60 µL of internal standard solution and 20 µL of methanol. Samples were then vortex-mixed, centrifuged at 13,000 rpm for 9.5 min, and supernatants collected and stored frozen until analysis. […] The lower limit of quantification was 5 ng/mL, using 5-µL sample volumes.

[2] = design: method as in earlier work; conditions: unbound drug in the plasma; PBPK model parameter; ref [17, 18] and Drugbank; cited from earlier work
[3] = In vivo pharmacokinetic study in mice, intravenous ibrutinib (plasma); conditions: for AUC(0-t) / Cmax: female, FVB, mouse, plasma, iv, 1 mg/kg, ibrutinib 1 mg/kg IV, mean (SD); for AUC(0-t): Ibrutinib AUC(0-last); for Cmax: Ibrutinib Cmax
Procedure: as §1, §2, §3, §4, §5

[4] = design: method as in earlier work; conditions: acid dissociation constant; PBPK model parameter; ref [17, 18] and Drugbank; cited from earlier work
[5] = female, FVB, mouse, 30 mg/kg, female wild-type FVB mice, ibrutinib 30 mg/kg oral, no cotreatment, mean (SE)
[6] = male, C57BL/6, mouse, 10 mg/kg, male OATP2B1(-/-) mice, ibrutinib 10 mg/kg PO, no co-treatment, mean (SD)
[7] = male, C57BL/6, mouse, 10 mg/kg, male wild-type C57BL/6 mice, ibrutinib 10 mg/kg PO, no co-treatment, mean (SD)
[8] = male, FVB, mouse, 10 mg/kg, male wild-type FVB mice, ibrutinib 10 mg/kg PO, co-treatment No Vehicle (cobicistat experiment), mean (SD)
[9] = male, FVB, mouse, 10 mg/kg, male wild-type FVB mice, ibrutinib 10 mg/kg PO, co-treatment None (ketoconazole experiment), mean (SD)
[10] = male, FVB, mouse, 10 mg/kg, male wild-type FVB mice, ibrutinib 10 mg/kg PO, co-treatment PEG400, mean (SD)
[11] = male, FVB, mouse, 10 mg/kg, male wild-type FVB mice, ibrutinib 10 mg/kg PO, co-treatment cobicistat, mean (SD)
[12] = male, FVB, mouse, 10 mg/kg, male wild-type FVB mice, ibrutinib 10 mg/kg PO, co-treatment corn oil, mean (SD)
[13] = male, FVB, mouse, 10 mg/kg, male wild-type FVB mice, ibrutinib 10 mg/kg PO, co-treatment ketoconazole, mean (SD)
[14] = female CYP3A(-/-) mice, co-treatment cobicistat
[15] = female CYP3A(-/-) mice, co-treatment corn oil
[16] = female wild-type FVB mice, co-treatment cobicistat
[17] = female wild-type FVB mice, co-treatment corn oil

C=CC(=O)N1CCC[C@@H](n2nc(-c3ccc(Oc4ccccc4)cc3)c3c(N)ncnc32)C1 [Ibrutinib]
bioavailability ([1]; female, FVB, mouse, 10 mg/kg, female CYP3A-/- mice, ibrutinib 10 mg/kg oral, no cotreatment): 45%
bioavailability ([1]; female, FVB, mouse, 10 mg/kg, female wild-type FVB mice, ibrutinib 10 mg/kg oral single dose, cotreatment cobicistat 30 mg/kg): 50%
bioavailability ([1]; female, FVB, mouse, 10 mg/kg, female wild-type FVB mice, ibrutinib 10 mg/kg oral single dose, cotreatment corn oil): 5.5%
bioavailability ([1]; female, FVB, mouse, 10 mg/kg, female wild-type FVB mice, ibrutinib 10 mg/kg oral, cotreatment cobicistat 30 mg/kg, steady-state): 43%
bioavailability ([1]; female, FVB, mouse, 10 mg/kg, female wild-type FVB mice, ibrutinib 10 mg/kg oral, cotreatment corn oil, steady-state): 8.8%
bioavailability ([1]; female, FVB, mouse, 10 mg/kg, female wild-type FVB mice, ibrutinib 10 mg/kg oral, no cotreatment): 5.8%
AUC(0-t) [1, 5]: 1710 ng·h/mL
Cmax [1, 5]: 554 ng/mL
bioavailability ([1]; female, FVB, mouse, 30 mg/kg, female wild-type FVB mice, ibrutinib 30 mg/kg oral, no cotreatment): 11%
increase in ibrutinib AUC ([1]; cobicistat): 7 fold
increase in ibrutinib AUC ([1]; ketoconazole): 10 fold
AUC(0-t) [1, 6]: 1770 ng·h/mL
AUC(0-t) [1, 7]: 1390 ng·h/mL
Cmax [1, 6]: 1630 ng/mL
Cmax [1, 7]: 1380 ng/mL
AUC(0-t) [1, 8]: 520 ng·h/mL
AUC(0-t) [1, 9]: 429 ng·h/mL
AUC(0-t) [1, 10]: 636 ng·h/mL
AUC(0-t) [1, 11]: 4340 ng·h/mL
AUC(0-t) [1, 12]: 663 ng·h/mL
AUC(0-t) [1, 13]: 6640 ng·h/mL
Cmax [1, 8]: 360 ng/mL
Cmax [1, 9]: 404 ng/mL
Cmax [1, 10]: 348 ng/mL
Cmax [1, 11]: 1360 ng/mL
Cmax [1, 12]: 243 ng/mL
Cmax [1, 13]: 1260 ng/mL
systemic levels of ibrutinib ([1]; mice lacking OATP1B2 vs wild-type): not altered
systemic levels of ibrutinib ([1]; mice lacking OATP2B1 vs wild-type): not altered
increase in exposure to ibrutinib ([1]; wild-type mice, oral ibrutinib 10 mg/kg after cobicistat 30 mg/kg, single dose or steady-state (day 5)): about 9 fold
fu, plasma [2]: 0.027
AUC(0-t) [3, 14]: 895 ng·h/mL
AUC(0-t) [3, 15]: 1170 ng·h/mL
AUC(0-t) [3, 16]: 1010 ng·h/mL
AUC(0-t) [3, 17]: 521 ng·h/mL
Cmax [3, 14]: 1440 ng/mL
Cmax [3, 15]: 1860 ng/mL
Cmax [3, 16]: 1540 ng/mL
Cmax [3, 17]: 1410 ng/mL
increase in ibrutinib exposure ([3]; intravenous ibrutinib, CYP3A deficiency vs wild-type): 2 fold
effect of cobicistat on exposure to ibrutinib ([3]; intravenous ibrutinib, CYP3A-/- mice): did not further increase exposure
increase in ibrutinib exposure ([3]; intravenous ibrutinib, wild-type mice, oral cobicistat pretreatment vs vehicle): 2 fold
pKa [4]: 3.78
